Results reported in patent US7105485B2, “HO-1 suppressor as a diagnostic and prognostic test for dementing diseases” (The Sir Mortimer B. Davis - Jewish General Hospital, priority 2000, dated 2006).
Entries after “also recorded” stand apart in the source; their conditions may differ.

Key:
HO-1 mRNA [1] = test: Induction of HO-1 mRNA in rat astroglia by cysteamine treatment (Northern blot); assay type: cell-based; conditions: rat astroglia grown in standard culture media, CSH 880 μM x 6 hr
Experimental: (§1) Brain cell cultures: Rat astroglia were prepared as described in Schipper et al. (1999), herein incorporated by reference, as follows:
(§2) Pregnant Sprague-Dawley rats were obtained from Charles River Breeding Farms. Primary neural cell cultures were prepared from 1-day old neonates by mechanoenzymatic dissociation of cerebral tissue […] as previously described by Chopra et al., (1997), herein incorporated by reference. Cells were grown in Ham's F-12 and high-glucose DMEM (50:50 vol/vol) supplemented with 10 mM HEPES. 5% heat-inactivated horse serum, 5% heat-inactivated fetal bovine serum, and penicillin/streptomycin (50 U/ml and 50 μg/ml, respectively). […] The cultures were then incubated under the above-mentioned conditions for 6 days, at which time >98% of the cells composing the monolayer were astroglia, as determined by immunohistochemical labeling for the astrocyte-specific marker glial fibrillary acidic protein, as described by Chopra et al. (1995), herein incorporated by reference. […]
(§3) RNA isolation and Northern analysis: Cultured astrocytes were harvested using a rubber policeman, and cytoplasmic RNA was isolated using an acid guanidinium thiocyanate/phenol/chloroform extraction method, as described by Chomczynski and Sacchi (1987), herein incorporated by reference. […] Resulting bands on the autoradiograph were analyzed using a phosphorimager S1 densitometer. […]

HO-1 mRNA [2] = test: HOS bioassay: effect of 24 h pre-incubation with plasma or plasma fractions on the induced HO-1 mRNA response of rat astroglia (Northern blot); assay type: cell-based; conditions: normal subjects taking antioxidants; vitamin E 400 U/day (N1); multiple very high-dose antioxidants (N2, N3)
Experimental: as §1, §2, §3

Compound	HO-1 mRNA bands after cysteamine (CSH) treatment (HO-1 mRNA [1])	HO-1 mRNA bands after cysteamine (CSH) treatment (HO-1 mRNA [1]; listed as CSH)	astrocyte HO-1 mRNA response to CSH with plasma of normal subjects on antioxidants (HO-1 mRNA [2])
NCCS [Cysteamine]	induces strong HO-1 mRNA bands; also recorded: induces robust HO-1 mRNA bands	intense HO-1 mRNA signal	
vitamin E			does not affect
